Assay results as given in patent US6747033B2, “Fungicidal triazolopyrimid-7-ylideneamines” (BASF Aktiengesellschaft, priority 2000, dated 2004).
Like-named read-outs stand apart in the source and are kept apart here.

Assays:
[1] = system: Blumeria graminis; assay: In vivo fungicidal activity, Wheat powdery mildew (WPM); note: ranges in brackets are in %
[2] = system: Rhizoctonia solani; assay: In vitro fungicidal activity, Rice sheath blight (RHIZSO); format: cell-based; parameters: key: 0: None; 3: slight; 5: moderate; 7: severe; 9: complete; details: 3-7 days of incubation
Experimental: (§1) Test compounds are dissolved in acetone to give concentrations of 25, 10 and 1 ppm and are added to individual cell Walls (24-cell-well plates, Corning), which were previously filled with a suspension of ground plates, Corning), which were previously filled with a suspension of ground fungal mycelium in a chemically defined growth medium. After 3-7 days of incubation, inhibition of […] growth is recorded using the following scale: The data obtained are shown in Table II. [table]

[3] = system: Pyricularia grisea f. sp. oryzae; format: in vivo; details: Rice Blast
[4] = system: Plasmopara viticola; assay: In vivo fungicidal activity, Grape downy mildew (GDM); note: ranges in brackets are in %
[5] = system: Alternara solani; assay: In vivo fungicidal activity, Tomato early blight (TEB); note: ranges in brackets are in %
[6] = system: Pythium ultimum; assay: In vitro fungicidal activity, Fruit rot (PYTHUL); format: cell-based; parameters: key: 0: None; 3: slight; 5: moderate; 7: severe; 9: complete; details: 3-7 days of incubation
Experimental: as §1

[7] = system: Pseudocercosporella herpotrichoides; assay: In vitro fungicidal activity, Cereal eye spot (PSDCHE); format: cell-based; parameters: key: 0: None; 3: slight; 5: moderate; 7: severe; 9: complete; details: 3-7 days of incubation
Experimental: as §1

[8] = system: Botrytis cinera; assay: In vivo fungicidal activity, Pepper Botrytis (PB); note: ranges in brackets are in %
[9] = system: Venturia inaequalis; assay: In vivo fungicidal activity, Apple Scab (AS); note: ranges in brackets are in %

Structure (SMILES)	WPM disease control rating ([1]; 12.5 ppm spray)	WPM disease control rating ([1]; 50 ppm spray)	WPM disease control rating ([1]; 200 ppm spray)	RB disease control rating ([3]; 12.5 ppm spray)	RB disease control rating ([3]; 50 ppm spray)	RB disease control rating ([3]; 200 ppm spray)	GDM disease control rating ([4]; 12.5 ppm spray)	GDM disease control rating ([4]; 50 ppm spray)	GDM disease control rating ([4]; 200 ppm spray)	TEB disease control rating ([5]; 12.5 ppm spray)	TEB disease control rating ([5]; 50 ppm spray)	TEB disease control rating ([5]; 200 ppm spray)	PB disease control rating ([8]; 12.5 ppm spray)	PB disease control rating ([8]; 50 ppm spray)	PB disease control rating ([8]; 200 ppm spray)	AS disease control rating ([9]; 12.5 ppm spray)	AS disease control rating ([9]; 50 ppm spray)	AS disease control rating ([9]; 200 ppm spray)	further results
Cn1c(Cl)c(-c2c(F)cc(F)cc2F)c(=NCC(F)(F)F)n2ncnc12 [Example 17]	0 (0)	2 (15-29)	6 (75-89)	0 (0)	3 (30-44)	4 (45-59)	0 (0)	0 (0)	5 (60-74)	0 (0)	0 (0)	0 (0)	0 (0)	0 (0)	0 (0)	0 (0)	2 (15-29)	6 (75-89)	RHIZSO inhibition of mycelial growth rating ([2]; 1 ppm): 7; RHIZSO inhibition of mycelial growth rating ([2]; 10 ppm): 7; RHIZSO inhibition of mycelial growth rating ([2]; 25 ppm): 7; PYTHU inhibition of mycelial growth rating ([6]; 1 ppm): 0; PYTHU inhibition of mycelial growth rating ([6]; 10 ppm): 5; PYTHU inhibition of mycelial growth rating ([6]; 25 ppm): 7; PSDCH inhibition of mycelial growth rating ([7]; 1 ppm): 0; PSDCH inhibition of mycelial growth rating ([7]; 10 ppm): 1; PSDCH inhibition of mycelial growth rating ([7]; 25 ppm): 3
COc1cc(F)c(-c2c(Cl)nc3n(C)cnn3c2=NC(C)C(F)(F)F)c(F)c1 (stereo not drawn) [Example 13]	0 (0)	3 (30-44)	5 (60-74)	0 (0)	0 (0)	0 (0)	0 (0)	0 (0)	0 (0)	0 (0)	0 (0)	0 (0)	0 (0)	0 (0)	0 (0)	0 (0)	0 (0)	0 (0)	
CC(N=c1c(-c2c(F)cccc2F)c(Cl)n(C)c2ncnn12)C(F)(F)F (stereo not drawn) [Example 5]	0 (0)	3 (30-44)	6 (75-89)	0 (0)	0 (0)	0 (0)	6 (75-89)	6 (75-89)	5 (60-74)	0 (0)	0 (0)	0 (0)	0 (0)	0 (0)	1 (1-14)	0 (0)	0 (0)	0 (0)	
CC(N=c1c(-c2c(F)cccc2F)c(Cl)nc2n(C)cnn12)C(F)(F)F (stereo not drawn) [Example 14]	0 (0)	0 (0)	0 (0)	0 (0)	0 (0)	0 (0)	0 (0)	4 (45-59)	7 (90-95)	0 (0)	0 (0)	0 (0)	0 (0)	0 (0)	0 (0)	0 (0)	0 (0)	6 (75-89)	
